Data on 20 compounds can be found in US12358921B2, “Antiviral heterocyclic compounds” (priority 2022, dated 2025).

For one assay, the system named is HRSV. The settings on record: prophylactic use, high risk infants; cited from earlier work.
The subject of assay [1] is hMPV A2 TN/94-49. In words: HMPV antiviral assay Method 1 (LLC-MK2 cells, ATP-Lite). The settings on record: hMPV A2 TN/94-49, LLC-MK2 cells. The class given is cell-based. The procedure, abridged:
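LLC-MK2 cells infected in suspension with hMPV A2 TN/94-49 at MOI 0.005, 5,000 cells/well, in serum-free OptiMEM with 2 μg/mL TPCK-trypsin (final) and CaCl2; compounds in duplicate, 10 points, 2 μM top, 2.5-fold dilutions. After 7 days at 37 °C, cell health by ATP-Lite luminescence; EC50 by four-parameter fit.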

The test system of assay [2] is hMPV A2 TN/94-49. In words: HMPV antiviral assay Method 2 (LLC-MK2 cells with CP-100-356, ATP-Lite). The class given is cell-based. Conditions: hMPV A2 TN/94-49, LLC-MK2 cells, 4 μM CP-100-356, Method 2. The gist of the method:
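LLC-MK2 cells infected in suspension with hMPV A2 TN/94-49 at MOI 0.16, in serum-free OptiMEM with final 2 μg/mL TPCK-trypsin and 2 μM CP-100-356 (P-gp inhibitor). Compounds tested in duplicate, top 200 nM, 2.5-fold, 10 points; 7 days at 37 °C. ATP-Lite cell health normalised to controls; EC50 by four-parameter fit.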

The test system of assay [3] is HUMAN RSV-A (“LONG” STRAIN). Kind of assay: RSV-A assay (CPE, ATPlite) in Hep-2 cells. The format is cell-based. Conditions: human respiratory syncytial virus, 120 h, MOI 0.1, 5-day incubation. The gist of the method: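 Hep-2 cells (8,000/well) given 2-fold serial compound dilutions in duplicate, then infected with RSV-A Long strain at MOI 0.1. After 5 days, virus-induced cytopathic effect quantified as cellular ATP by ATPlite luminescence, against virus-only and uninfected controls; EC50 reported in ranges.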
Background: In ATP-based viability assays light output follows the ATP content of the culture.

A word on the EC50: it is the concentration giving half of the maximal effect. High values mean a less potent agent, low ones a more potent agent.

Where only a bound is given, the exact number is not on record here.

Take Palivizumab: the “effective in reducing hospitalizations” value in the assay on HRSV is 60%.
On to `COc1cc(C(=O)NC[C@@](O)(c2ccccc2)c2cc3c(c(-c4ccc(F)c(Cl)c4Cl)n2)OC[C@]3(C)C(N)=O)cc2cc(Cl)cnc12` [Example 294], for which the EC50 in the assay on hMPV A2 TN/94-49 [1] is less than 500 nM; in the assay with hMPV A2 TN/94-49 [2] it was less than 200 nM; in assay [3], less than 200 nM.
With `COc1cc(C(=O)NC[C@](O)(c2cc3c(c(-c4ccc(F)c(Cl)c4Cl)n2)OC[C@]3(C)C(N)=O)C(F)(F)F)cc2cn(C(F)F)nc12` [Example 66], the 50% effective concentration (EC50) was less than 500 nM in the assay on hMPV A2 TN/94-49 [1], less than 200 nM in the assay on hMPV A2 TN/94-49 [2] and less than 200 nM in assay [3].
Take `C[C@]1(C(N)=O)COc2c1cc([C@@](O)(CNC(=O)c1cc(OC3CC3)c3nn(C(F)F)cc3c1)c1ccc(F)cc1)nc2-c1ccc2c(c1Cl)OC(F)(F)O2` [Example 265]: the results for the EC50 (in the assay with hMPV A2 TN/94-49 [1]; in the assay on hMPV A2 TN/94-49 [2]; in assay [3]) were less than 500 nM, less than 200 nM and less than 200 nM, respectively.
With `C[C@]1(C(N)=O)COc2c1cc([C@@](O)(CNC(=O)c1cc(OC3CC3)c3nc(C4CC4)sc3c1)C1CC1)nc2-c1cc(Cl)c(F)cc1F` [Example 3], the EC50 was less than 500 nM in the assay with hMPV A2 TN/94-49 [1], less than 200 nM in the assay on hMPV A2 TN/94-49 [2] and less than 200 nM in assay [3].
With `COc1cc(C(=O)NC[C@@](O)(c2ccccc2)c2cc3c(c(-c4cc(C(F)(F)F)ccc4F)n2)OC[C@]3(C)C(N)=O)cc2cn(C3CC3)nc12` [Example 147], the results for the EC50 (in the assay with hMPV A2 TN/94-49 [1]; in the assay on hMPV A2 TN/94-49 [2]; in assay [3]) were less than 500 nM, less than 200 nM and less than 200 nM, respectively.
For the compound `COc1cc(C(=O)NC[C@@](O)(c2ccccc2)c2cc3c(c(-c4cc(Cl)c(F)cc4F)n2)OC[C@]3(C)C(N)=O)cc2cc(Br)cnc12` [Example 185], the EC50 was less than 500 nM with hMPV A2 TN/94-49 [1], less than 200 nM in the assay with hMPV A2 TN/94-49 [2] and less than 200 nM in assay [3].
Consider `COc1cc(C(=O)NC[C@](O)(c2cc3c(c(-c4cc(Cl)c(F)cc4F)n2)OC[C@]3(C)C(N)=O)c2nccs2)cc2cn(C3CC3)nc12` [Example 475], for which the concentration for a half-maximal effect (EC50) with hMPV A2 TN/94-49 [1] is less than 500 nM; in the assay on hMPV A2 TN/94-49 [2], less than 200 nM; in assay [3], less than 200 nM.
As to `C[C@]1(C(N)=O)COc2c1cc([C@@](O)(CNC(=O)c1cc(OC3CC3)c3nn(C4CC4)cc3c1)C1CC1)nc2-c1ccc(F)c(Cl)c1Cl` [Example 23], the values for the EC50 (in the assay on hMPV A2 TN/94-49 [1]; in the assay on hMPV A2 TN/94-49 [2]; in assay [3]) were less than 500 nM, less than 200 nM and less than 200 nM, respectively.
As to `COc1cc(C(=O)NC[C@@](O)(c2cccc(F)c2)c2cc3c(c(-c4cccc(Cl)c4Cl)n2)OC[C@]3(C)C(N)=O)cc2oc(C)nc12` [Example 293], the 50% effective concentration (EC50) is less than 500 nM in the assay on hMPV A2 TN/94-49 [1], less than 200 nM in the assay with hMPV A2 TN/94-49 [2] and less than 200 nM in assay [3].
Take `COc1cc(C(=O)NC[C@@](O)(c2ccccc2)c2cc3c(c(-c4cccc(Cl)c4Cl)n2)OC[C@]3(C)C(N)=O)cc2cn(C3CC3)nc12` [Example 260]: the results for the EC50 (in the assay with hMPV A2 TN/94-49 [1]; with hMPV A2 TN/94-49 [2]; in assay [3]) were less than 500 nM, less than 200 nM and less than 200 nM, respectively.
Consider `COc1cc(C(=O)NC[C@@](O)(c2cccc(F)c2)c2cc3c(c(-c4cccc(Cl)c4Cl)n2)OC[C@]3(C)C(N)=O)cc2oc(C3CC3)nc12` [Example 292], for which the EC50 in the assay with hMPV A2 TN/94-49 [1] was less than 500 nM; in the assay with hMPV A2 TN/94-49 [2], less than 200 nM; in assay [3], less than 200 nM.
Turning to `COc1cc(C(=O)NC[C@](O)(c2cc3c(c(-c4ccc5c(c4)OC(F)(F)O5)n2)OC[C@]3(C)C(N)=O)C2CC2)cc2cc(C)c(F)nc12` [Example 22], the EC50 with hMPV A2 TN/94-49 [1] was less than 500 nM; in the assay on hMPV A2 TN/94-49 [2] it was less than 200 nM; in assay [3], less than 200 nM.
`COc1cc(C(=O)NC[C@@](O)(c2ccccc2)c2cc3c(c(-c4cc(Cl)ccc4F)n2)OC[C@]3(C)C(N)=O)cc2cn(C3CC3)nc12` [Example 144]: the EC50 was less than 500 nM in the assay with hMPV A2 TN/94-49 [1], less than 200 nM in the assay with hMPV A2 TN/94-49 [2] and less than 200 nM in assay [3].
Turning to `C[C@]1(C(N)=O)COc2c1cc([C@@](O)(CNC(=O)c1cc(OC3CC3)c3nn(C(F)F)cc3c1)C1CC(F)(F)C1)nc2-c1cc(F)c(F)cc1F` [Example 34], the EC50 in the assay on hMPV A2 TN/94-49 [1] was less than 500 nM; with hMPV A2 TN/94-49 [2] it was less than 200 nM; in assay [3] it was less than 200 nM.
Regarding `COc1cc(C(=O)NC[C@@](O)(c2ccc(F)cc2)c2cc3c(c(-c4ccc5c(c4Cl)OC(F)(F)O5)n2)OC[C@]3(C)C(N)=O)cc2cn(C3(F)CC3)nc12` [Example 263], the EC50 was less than 500 nM in the assay on hMPV A2 TN/94-49 [1], less than 200 nM in the assay with hMPV A2 TN/94-49 [2] and less than 200 nM in assay [3].
In the case of `COc1cc(C(=O)NC[C@@](O)(c2cccnc2)c2cc3c(c(-c4cc(Cl)c(F)cc4F)n2)OC[C@]3(C)C(N)=O)cc2cn(C3CC3)nc12` [Example 131], the results for the EC50 (with hMPV A2 TN/94-49 [1]; with hMPV A2 TN/94-49 [2]; in assay [3]) were less than 500 nM, less than 200 nM and less than 200 nM, respectively.
Turning to `COc1cc(C(=O)NC[C@@](O)(c2ccccc2)c2cc3c(c(-c4cc(Cl)c(F)cc4F)n2)OC[C@]3(C)C(N)=O)cc2cc(C3CC3)nnc12` [Example 90], the EC50 with hMPV A2 TN/94-49 [1] was less than 500 nM; in the assay on hMPV A2 TN/94-49 [2] it was less than 200 nM; in assay [3] it was less than 200 nM.
For `COc1cc(C(=O)NC[C@@](O)(c2ccccc2)c2cc3c(c(-c4ccc(F)c(Cl)c4Cl)n2)OC[C@]3(C)C(N)=O)cc2cc(C3CC3)nnc12` [Example 290], the EC50 was less than 500 nM with hMPV A2 TN/94-49 [1], less than 200 nM with hMPV A2 TN/94-49 [2] and less than 200 nM in assay [3].
In the case of `COc1cc(C(=O)NC[C@@](O)(c2cccc(F)c2)c2cc3c(c(-c4cc(C(F)(F)F)c(F)cc4F)n2)OC[C@]3(C)C(N)=O)cc2cn(C3(F)CC3)nc12` [Example 296], the 50% effective concentration (EC50) was less than 500 nM with hMPV A2 TN/94-49 [1], less than 200 nM in the assay on hMPV A2 TN/94-49 [2] and less than 200 nM in assay [3].
